Results as given in PubChem BioAssay (NCI).
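All cell lines were grown in 96-well plates and treated with compound for 48 hours. TGI marks complete inhibition of growth.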

What was measured:
Experiment in all cases: NCI anticancer screen, dose series, 48 h
[1] = system: U251 CNS
[2] = system: RXF 393 renal
[3] = system: M14 melanoma
[4] = system: HCT-15 colon
[5] = system: OVCAR-3 ovarian
[6] = system: OVCAR-4 ovarian
[7] = system: SN12C renal
[8] = system: SF-539 CNS
[9] = system: 786-0 renal
[10] = system: SW-620 colon
[11] = system: NCI-H460 lung
[12] = system: OVCAR-8 ovarian
[13] = system: A549 NSCLC
[14] = system: HOP-92 NSCLC
[15] = system: SK-MEL-5 melanoma
[16] = system: HCC-2998 colon
[17] = system: NCI-H522 lung
[18] = system: SK-OV-3 ovarian
[19] = system: SF-268 CNS
[20] = system: CCRF-CEM leukemia
[21] = system: SNB-75 CNS
[22] = system: KM12 colon
[23] = system: UO-31 renal
[24] = system: K-562 leukemia
[25] = system: RPMI-8226 leukemia
[26] = system: M19-MEL melanoma
[27] = system: LOX IMVI melanoma
[28] = system: SK-MEL-28 melanoma
[29] = system: MALME-3M melanoma
[30] = system: SR leukemia
[31] = system: NCI-H23 lung
[32] = system: HCT-116 colon
[33] = system: RXF-631 renal
[34] = system: HT29 colon
[35] = system: LXFL 529 NSCLC
[36] = system: ACHN renal
[37] = system: A498 renal
[38] = system: SF-295 CNS
[39] = system: HL-60(TB) leukemia
[40] = system: CAKI-1 renal
[41] = system: IGROV1 ovarian
[42] = system: HOP-62 NSCLC
[43] = system: OVCAR-5 ovarian
[44] = system: DMS 273 small cell lung
[45] = system: SNB-78 CNS
[46] = system: DLD-1 colon
[47] = system: TK-10 renal
[48] = system: SK-MEL-2 melanoma
[49] = system: SNB-19 CNS
[50] = system: COLO 205 colon
[51] = system: HOP-18 NSCLC
[52] = system: UACC-257 melanoma
[53] = system: MOLT-4 leukemia

## Cc1cc(=O)cc2sc3c(C)cccc3nc1-2
[1]
  TGI: > 100 µM
[2]
  TGI: > 100 µM
[3]
  TGI: 52 µM
[4]
  TGI: > 100 µM
[5]
  TGI: 52 µM
[6]
  TGI: 30 µM
[7]
  TGI: 78.7 µM
[8]
  TGI: 73.3 µM
[9]
  TGI: 32.2 µM
[10]
  TGI: 17.7 µM
[11]
  TGI: 57.6 µM
[12]
  TGI: > 100 µM
[13]
  TGI: > 100 µM
[14]
  TGI: 85.9 µM
[15]
  TGI: 31.8 µM
[16]
  TGI: > 100 µM
[17]
  TGI: > 100 µM
[18]
  TGI: > 100 µM
[19]
  TGI: 26.3 µM
[20]
  TGI: 59.4 µM
[21]
  TGI: > 100 µM
[22]
  TGI: 48.2 µM
[23]
  TGI: > 100 µM
[24]
  TGI: 91.2 µM
[25]
  TGI: 97 µM
[26]
  TGI: 36.5 µM
[27]
  TGI: 39.2 µM
[28]
  TGI: > 100 µM
[29]
  TGI: > 100 µM
[30]
  TGI: > 100 µM
[31]
  TGI: > 100 µM
[32]
  TGI: 60.5 µM
[33]
  TGI: > 100 µM
[34]
  TGI: > 100 µM
[35]
  TGI: 32.9 µM
[36]
  TGI: > 100 µM
[37]
  TGI: 41.7 µM
[38]
  TGI: > 100 µM
[39]
  TGI: 46.8 µM
[40]
  TGI: 83 µM
[41]
  TGI: 54.9 µM
[42]
  TGI: > 100 µM
[43]
  TGI: > 100 µM
[44]
  TGI: > 100 µM
[45]
  TGI: > 100 µM
[46]
  TGI: 46.1 µM
[47]
  TGI: 77.4 µM
[48]
  TGI: 43.9 µM
[49]
  TGI: > 100 µM
[50]
  TGI: 32.6 µM
[51]
  TGI: > 100 µM
[52]
  TGI: > 100 µM
[53]
  TGI: 93.3 µM
